{
  "source": "patent US7635702B2",
  "about": "“Imidazole compounds as transforming growth factor (TGF) inhibitors” (Pfizer Inc., priority 2002, dated 2009)",
  "target": "T1, ALK-5 (TβRI) (Homo sapiens, UniProt P36897)",
  "T1 construct": "using either the kinase domain of ALK5 with Smad3 as substrate; GST",
  "T1 sequence (P36897 205-495 limits assumed)": "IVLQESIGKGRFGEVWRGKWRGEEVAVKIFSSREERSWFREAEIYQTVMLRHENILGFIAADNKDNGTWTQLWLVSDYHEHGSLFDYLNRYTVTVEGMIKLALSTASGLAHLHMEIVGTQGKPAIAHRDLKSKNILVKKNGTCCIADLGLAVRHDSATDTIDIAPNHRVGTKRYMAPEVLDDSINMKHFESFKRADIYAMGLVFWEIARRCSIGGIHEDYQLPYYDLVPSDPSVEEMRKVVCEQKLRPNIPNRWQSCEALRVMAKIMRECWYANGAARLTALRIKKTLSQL",
  "assay": "ALK-5 (TβRI) kinase assay",
  "type": "biochemical",
  "conditions": "GST-ALK5 with GST-Smad3 substrate, 33P-ATP",
  "protocol": "The kinase assays were performed with 65 nM GST-ALK5 and 84 nM GST-Smad3 in 50 mM HEPES, 5 mM MgCl2, 1 mM CaCl2, 1 mM dithiothreitol, and 3_M ATP. Reactions were incubated with 0.5_Ci of [33 P]_ATP for 3 h at 30° C. Phosphorylated protein was captured on P-81 paper (Whatman, Maidstone, England), washed with 0.5% phosphoric acid, and counted by liquid scintillation. Alternatively, Smad3 or Smad1 protein was also coated onto FlashPlate Sterile Basic Microplates (PerkinElmer Life Sciences, Boston, Mass.). Kinase assays were then performed in Flash-Plates with same assay conditions using either the kinase domain of ALK5 with Smad3 as substrate or the kinase domain of ALK6 (BMP receptor) with Smad1 as substrate. Plates were washed three times with phosphate buffer and counted by TopCount (Packard Bio-science, Meriden, Conn.). (Laping, N.J. et al. Molecular Pharmacology 62:58-64 (2002)).",
  "data": [
    {"molecule": "Cc1cccc(-c2[nH]cnc2-c2ccc3nnn(C)c3c2)n1", "note": "[Example 12, 1-Methyl-6-[5-(6-methyl-pyridin-2-yl)-1H-imidazol-4-yl]-1H-benzotriazole]", "values": [
      {"measurement": "IC50", "value": "~44.5", "unit": "nM"}
    ]}
  ]
}
